Data published in publication PMC11413964, “Discovery of 1,3-disubstituted prop-2-en-1-one derivatives as inhibitors of neutrophilic inflammation via modulation of MAPK and Akt pathways” (Journal of Enzyme Inhibition and Medicinal Chemistry, 2024).

Legend:
[1] = system: fMLF/cytochalasin B (CB)-activated human neutrophils; assay: Elastase release in fMLF/CB-activated human neutrophils; format: cell-based; conditions: 10 μM compound; cytochalasin B only
[2] = system: fMLF/cytochalasin B (CB)-activated human neutrophils; assay: Superoxide anion generation (ferricytochrome c reduction) in fMLF/CB-activated human neutrophils; format: cell-based; conditions: Neutrophil, fMLF/CB stimulation, mean ± SEM (n = 3–5); for inhibition at 10 µM: 10 μM compound
Procedure: (§1) The study involving neutrophils was approved by the Institutional Review Board of Chang Gung Memorial Hospital under IRB number: 201902217A3 and was conducted in accordance with the principles of the Declaration of Helsinki. Healthy volunteers aged 20–35 years provided signed informed consents for blood collection. Isolation of neutrophils was done using dextran sedimentation, Ficoll-Hypaque density gradient centrifugation, and hypotonic haemolysis. For the anti-inflammatory studies, neutrophils were suspended in Hank’s balanced salt solution (HBSS) containing 1 mM Ca^2+ at a pH of 7.4[72].
The reduction of ferricytochrome c was utilised to measure the production of SO anions in activated human neutrophils. […] The neutrophils were then stimulated with fMLF (0.1 μM) and CB (1 μg/mL) for 13 min. […] LY294002 was used as a positive control.

[3] = system: fMLF/cytochalasin B (CB)-activated human neutrophils; assay: Elastase release in fMLF/CB-activated human neutrophils; format: cell-based; conditions: fMLF/CB stimulation, mean ± SEM (n = 3–5); for inhibition at 10 µM: 10 μM compound
Procedure: as §1
Neutrophils were subsequently stimulated with fMLF (0.1 μM) and CB (0.5 μg/mL) for 13 min. […] LY294002 was used as a positive control.

p38 MAPK = assay: Immunoblotting of p38 MAPK phosphorylation in fMLF-activated neutrophils; format: cell-based, human; conditions: 10 μM for 5 min, then fMLF 0.1 μM for 30 s
Procedure: (§2) Human neutrophils (2.5 × 10^7 cells/mL) were first subjected to DMSO (0.1%, serving as control) or experimental compounds at 37 °C for 5 min. Following this, cells were stimulated with fMLF (0.1 μM) for 30 s. […] Primary antibodies used included those for p38 (1:8000), phospho-p38 (1:3000), JNK (1:3000), phospho-JNK (1:3000), Akt (1:5000), phospho-Akt (Ser-473) (1:2000), ERK (1:8000), phospho-ERK (1:8000), and HRP-linked anti-rabbit IgG, to measure total and phosphorylated forms of MAPK and Akt proteins. The quantitative measurements for all samples were adjusted to correspond with the levels of the total protein present.

JNK = assay: Immunoblotting of JNK phosphorylation in fMLF-activated neutrophils; format: cell-based, human; conditions: 10 μM for 5 min, then fMLF 0.1 μM for 30 s
Procedure: as §2

ERK = assay: Immunoblotting of ERK phosphorylation in fMLF-activated neutrophils; format: cell-based, human; conditions: 10 μM for 5 min, then fMLF 0.1 μM for 30 s
Procedure: as §2

Akt = assay: Immunoblotting of Akt phosphorylation in fMLF-activated neutrophils; format: cell-based, human; conditions: 10 μM for 5 min, then fMLF 0.1 μM for 30 s
Procedure: as §2

[4] = system: fMLF/cytochalasin B (CB)-activated human neutrophils; assay: Superoxide anion generation (ferricytochrome c reduction) in fMLF/CB-activated human neutrophils; format: cell-based; conditions: 10 μM compound; cytochalasin B only

SMILES	melting point	IC50 [2]	inhibition at 10 µM [2]	inhibition at 10 µM ([3]; Homo sapiens, Neutrophil)	other results
CC(C)(C)C(=O)/C=C/c1ccc2ccccc2c1 [Compound 26, (E)-4,4-Dimethyl-1-(naphthalen-2-yl)pent-1-en-3-one]	117 to 119 °C	–	10.6 ± 3.34%	–	Induction of elastase release [1]: induced elastase release
CC(C)(C)C(=O)/C=C/c1ccc(Cl)cc1Cl [Compound 15, (E)-1-(2,4-Dichlorophenyl)-4,4-dimethylpent-1-en-3-one]	103 to 104 °C	–	43 ± 2.78%	–	Induction of elastase release [1]: induced elastase release
CC(C)(C)C(=O)/C=C/c1ccc([N+](=O)[O-])cc1 [Compound 6, (E)-4,4-Dimethyl-1-(4-nitrophenyl)pent-1-en-3-one]	125 to 126 °C	–	23.3 ± 2.3%	–	Induction of elastase release [1]: induced elastase release
O=C(/C=C/c1ccc(Cl)cc1)c1ccc(-c2ccccc2)cc1 [Compound 11a, (E)-1-([1,1′-Biphenyl]-4-yl)-3-(4-chlorophenyl)prop-2-en-1-one]	–	–	–	–	Induction of superoxide anion production [4]: an inducer rather than an inhibitor
CC(C)(C)C(=O)/C=C/c1ccc(Cl)c(Cl)c1 [Compound 16, (E)-1-(3,4-Dichlorophenyl)-4,4-dimethylpent-1-en-3-one]	94 to 96 °C	–	16.5 ± 4.67%	10.2 ± 0.59%	–
CCOc1ccccc1C(=O)/C=C/c1ccccc1C(F)(F)F [Compound 5, (E)-1-(2-Ethoxyphenyl)-3-(2-(trifluoromethyl)phenyl)prop-2-en-1-one]	70.5 to 71.5 °C	1810 ± 220 nM	68.3 ± 8.99%	8.13 ± 3.43%	–
CC(C)(C)C(=O)/C=C/c1cc(F)cc(F)c1 [Compound 14, (E)-1-(3,5-Difluorophenyl)-4,4-dimethylpent-1-en-3-one]	71 to 72 °C	6520 ± 570 nM	69.1 ± 6.71%	12 ± 3.52%	–
Cc1ccc(/C=C/C(=O)C(C)(C)C)cc1F [Compound 18, (E)-1-(3-Fluoro-4-methylphenyl)-4,4-dimethylpent-1-en-3-one]	70 to 71 °C	–	31.3 ± 4.71%	7.77 ± 0.8%	–
COc1cc(F)c(/C=C/C(=O)C(C)(C)C)cc1F [Compound 23, (E)-1-(2,5-Difluoro-4-methoxyphenyl)-4,4-dimethylpent-1-en-3-one]	131 to 132 °C	–	8.1 ± 1.88%	2.5 ± 1.53%	–
CC(C)(C)C(=O)/C=C/c1ccc(-c2ccccc2)cc1 [Compound 29, (E)-1-([1,1′-Biphenyl]-4-yl)-4,4-dimethylpent-1-en-3-one]	128 to 130 °C	–	2.23 ± 0.94%	–	Induction of elastase release [1]: induced elastase release
COc1ccc(C(=O)/C=C/c2ccc(OC)c(F)c2)c(OC)c1 [Compound 21, (E)-1-(2,4-Dimethoxyphenyl)-3-(3-fluoro-4-methoxyphenyl)prop-2-en-1-one]	85 to 86 °C	–	17.1 ± 3.58%	31.6 ± 5.88%	–
CC(C)(C)C(=O)/C=C/c1ccc(Br)cc1 [Compound 3, (E)-1-(4-Bromophenyl)-4,4-dimethylpent-1-en-3-one]	101 °C	–	25 ± 2.48%	9.09 ± 2.01%	–
CC(C)(C)C(=O)/C=C/c1ccc(Cl)c(F)c1 [Compound 17, (E)-1-(4-Chloro-3-fluorophenyl)-4,4-dimethylpent-1-en-3-one]	98.5 to 99.2 °C	–	40.6 ± 3.89%	9.13 ± 1.78%	–
CC(C)(C)Oc1ccc(/C=C/C(=O)c2ccc[nH]2)cc1 [Compound 13, (E)-3-(4-(tert-Butoxy)phenyl)-1-(1H-pyrrol-2-yl)prop-2-en-1-one]	116.5 to 118.5 °C	–	–	–	Induction of elastase release [1]: induced elastase release; Induction of superoxide anion production [4]: induced also SO anion generation
CCOc1ccccc1C(=O)/C=C/c1ccc(-c2ccccc2)cc1 [Compound 30, (E)-3-([1,1′-Biphenyl]-4-yl)-1-(2-ethoxyphenyl)prop-2-en-1-one]	98 to 99 °C	–	8.69 ± 2.43%	15.8 ± 2.57%	–
O=C(/C=C/c1ccc([N+](=O)[O-])cc1)C1CC1 [Compound 1a, (E)-1-Cyclopropyl-3-(4-nitrophenyl)prop-2-en-1-one]	118.9 to 120 °C	–	20.5 ± 4.05%	2.36 ± 3.3%	–

More lines, main results first:

melting point	IC50 [2]	SMILES	inhibition at 10 µM [2]	inhibition at 10 µM ([3]; Homo sapiens, Neutrophil)	other results
132.8 to 134.8 °C	1560 ± 270 nM	COc1ccc(C(=O)/C=C/c2cc(F)cc(F)c2)cc1OC [Compound 26a, (E)-3-(3,5-Difluorophenyl)-1-(3,4-dimethoxyphenyl)prop-2-en-1-one]	92.4 ± 2.19%	20.2 ± 3.19%	Effect on p38 phosphorylation (p38 MAPK): markedly diminished phosphorylation; Effect on JNK phosphorylation (JNK): markedly diminished phosphorylation; Effect on ERK phosphorylation (ERK): markedly diminished phosphorylation; Effect on Akt phosphorylation (Akt): did not affect
132.3 to 133.3 °C	1230 ± 270 nM	COc1cccc(C(=O)/C=C/c2ccc([N+](=O)[O-])cc2)c1 [Compound 6a, (E)-1-(3-Methoxyphenyl)-3-(4-nitrophenyl)prop-2-en-1-one]	99.69 ± 0.18%	84.5 ± 5.73%	IC50 ([3]; Homo sapiens, Neutrophil): 1370 nM; IC50 [3]: 2220 ± 120 nM; Effect on p38 phosphorylation (p38 MAPK): did not alter the phosphorylation; Effect on JNK phosphorylation (JNK): significantly suppressed phosphorylation; Effect on ERK phosphorylation (ERK): did not alter the phosphorylation; Effect on Akt phosphorylation (Akt): significantly suppressed phosphorylation
154.3 to 155 °C	4700 ± 600 nM	COc1ccc(C(=O)/C=C/c2cc(F)cc(F)c2)cc1 [Compound 25a, (E)-3-(3,5-Difluorophenyl)-1-(4-methoxyphenyl)prop-2-en-1-one]	78.2 ± 9.5%	20.9 ± 3.64%	–
123.6 to 124 °C	2030 ± 270 nM	O=C(/C=C/c1cc(F)cc(F)c1)c1ccc(Cl)cc1 [Compound 23a, (E)-1-(4-Chlorophenyl)-3-(3,5-difluorophenyl)prop-2-en-1-one]	96.04 ± 0.09%	83 ± 2.64%	IC50 ([3]; Homo sapiens, Neutrophil): 2320 ± 260 nM
182.4 °C	–	O=C(/C=C/c1ccc([N+](=O)[O-])cc1)c1ccc2c(c1)OCO2 [Compound 9a, (E)-1-(Benzo[d][1,3]dioxol-5-yl)-3-(4-nitrophenyl)prop-2-en-1-one]	18.1 ± 3.34%	16.7 ± 6.07%	–
76 to 78 °C	3470 ± 600 nM	COc1ccccc1C(=O)/C=C/c1ccc(Cl)cc1 [Compound 12a, (E)-3-(4-Chlorophenyl)-1-(2-methoxyphenyl)prop-2-en-1-one]	93.8 ± 3.02%	62.2 ± 5.35%	IC50 ([3]; Homo sapiens, Neutrophil): 7560 ± 1050 nM
